Species on record: Rattus norvegicus
Assay: Open TG-GATES - Regimen: Single
Assay type: toxicity, organism-based, Sprague-Dawley
Set-up: regimen Single, gender Male, age 6 weeks
Conditions: in vivo, po, route gavage; for APTT / Bas / Eos / Fbg / Hb / Ht / Lym / MCH / MCHC / MCV / Mono / Neu / PT / Plat / Ret / WBC: tissue Blood; for KIDNEY_L / KIDNEY_R / KIDNEY_TOTAL: tissue Kidney; for LIVER: tissue Liver; for ALP / ALT / AST / BUN / CRE / Ca / DBIL / GLC / IP / K / LDH / Na / PL / RALB / TBIL / TC / TG / TP / gamma-GTP: tissue Plasma

CN(C)CCCN1c2ccccc2CCc2ccc(Cl)cc21 [CLOMIPRAMINE]
APTT (10 mg/kg, 3 h, dose level Low): 17.9 s
Bas (10 mg/kg, 3 h, dose level Low): 0.4%
Eos (10 mg/kg, 3 h, dose level Low): 1%
Fbg (10 mg/kg, 3 h, dose level Low): 240 mg/dL
Hb (10 mg/kg, 3 h, dose level Low): 14 g/dL
Ht (10 mg/kg, 3 h, dose level Low): 43.3%
Lym (10 mg/kg, 3 h, dose level Low): 81%
MCH (10 mg/kg, 3 h, dose level Low): 20.7 pg
MCHC (10 mg/kg, 3 h, dose level Low): 32.4%
MCV (10 mg/kg, 3 h, dose level Low): 63.9 fL
Mono (10 mg/kg, 3 h, dose level Low): 3.4%
Neu (10 mg/kg, 3 h, dose level Low): 13.8%
PT (10 mg/kg, 3 h, dose level Low): 13.5 s
Plat (10 mg/kg, 3 h, dose level Low): 129 x10_4/uL
Ret (10 mg/kg, 3 h, dose level Low): 7.8%
WBC (10 mg/kg, 3 h, dose level Low): 74.4 x10_2/uL
KIDNEY_L (10 mg/kg, 3 h, dose level Low): 1 g
KIDNEY_R (10 mg/kg, 3 h, dose level Low): 1 g
KIDNEY_TOTAL (10 mg/kg, 3 h, dose level Low): 1.9 g
LIVER (10 mg/kg, 3 h, dose level Low): 10 g
ALP (10 mg/kg, 3 h, dose level Low): 1810.4 IU/L
ALT (10 mg/kg, 3 h, dose level Low): 41.2 IU/L
AST (10 mg/kg, 3 h, dose level Low): 75.8 IU/L
BUN (10 mg/kg, 3 h, dose level Low): 9.8 mg/dL
CRE (10 mg/kg, 3 h, dose level Low): 0.2 mg/dL
Ca (10 mg/kg, 3 h, dose level Low): 10.7 mg/dL
DBIL (10 mg/kg, 3 h, dose level Low): 0.01 mg/dL
GLC (10 mg/kg, 3 h, dose level Low): 189 mg/dL
IP (10 mg/kg, 3 h, dose level Low): 9 mg/dL
K (10 mg/kg, 3 h, dose level Low): 4.3 meq/L
LDH (10 mg/kg, 3 h, dose level Low): 123 IU/L
Na (10 mg/kg, 3 h, dose level Low): 140.6 meq/L
PL (10 mg/kg, 3 h, dose level Low): 148.6 mg/dL
RALB (10 mg/kg, 3 h, dose level Low): 2.5 g/dL
TBIL (10 mg/kg, 3 h, dose level Low): 0.074 mg/dL
TC (10 mg/kg, 3 h, dose level Low): 76.2 mg/dL
TG (10 mg/kg, 3 h, dose level Low): 78 mg/dL
TP (10 mg/kg, 3 h, dose level Low): 5.2 g/dL
gamma-GTP (10 mg/kg, 3 h, dose level Low): 1.2 IU/L
TERMINAL_BW (10 mg/kg, 6 h, dose level Low): 215.1 g
APTT (10 mg/kg, 6 h, dose level Low): 17 s
Bas (10 mg/kg, 6 h, dose level Low): 0%
Eos (10 mg/kg, 6 h, dose level Low): 0.4%
Fbg (10 mg/kg, 6 h, dose level Low): 254.8 mg/dL
Hb (10 mg/kg, 6 h, dose level Low): 14 g/dL
Ht (10 mg/kg, 6 h, dose level Low): 43.7%
Lym (10 mg/kg, 6 h, dose level Low): 79.6%
MCH (10 mg/kg, 6 h, dose level Low): 21 pg
MCHC (10 mg/kg, 6 h, dose level Low): 32.1%
MCV (10 mg/kg, 6 h, dose level Low): 65.5 fL
Mono (10 mg/kg, 6 h, dose level Low): 3%
Neu (10 mg/kg, 6 h, dose level Low): 15.6%
PT (10 mg/kg, 6 h, dose level Low): 13.6 s
Plat (10 mg/kg, 6 h, dose level Low): 119.7 x10_4/uL
Ret (10 mg/kg, 6 h, dose level Low): 7.9%
WBC (10 mg/kg, 6 h, dose level Low): 81.1 x10_2/uL
KIDNEY_L (10 mg/kg, 6 h, dose level Low): 1 g
KIDNEY_R (10 mg/kg, 6 h, dose level Low): 1 g
KIDNEY_TOTAL (10 mg/kg, 6 h, dose level Low): 2 g
LIVER (10 mg/kg, 6 h, dose level Low): 9.3 g
ALP (10 mg/kg, 6 h, dose level Low): 1661 IU/L
ALT (10 mg/kg, 6 h, dose level Low): 39.4 IU/L
AST (10 mg/kg, 6 h, dose level Low): 78.4 IU/L
BUN (10 mg/kg, 6 h, dose level Low): 9.4 mg/dL
CRE (10 mg/kg, 6 h, dose level Low): 0.2 mg/dL
Ca (10 mg/kg, 6 h, dose level Low): 10.8 mg/dL
DBIL (10 mg/kg, 6 h, dose level Low): 0.01 mg/dL
GLC (10 mg/kg, 6 h, dose level Low): 189.8 mg/dL
IP (10 mg/kg, 6 h, dose level Low): 9.4 mg/dL
K (10 mg/kg, 6 h, dose level Low): 4.2 meq/L
LDH (10 mg/kg, 6 h, dose level Low): 93 IU/L
Na (10 mg/kg, 6 h, dose level Low): 140.8 meq/L
PL (10 mg/kg, 6 h, dose level Low): 149 mg/dL
RALB (10 mg/kg, 6 h, dose level Low): 2.5 g/dL
TBIL (10 mg/kg, 6 h, dose level Low): 0.072 mg/dL
TC (10 mg/kg, 6 h, dose level Low): 83.4 mg/dL
TG (10 mg/kg, 6 h, dose level Low): 52.2 mg/dL
TP (10 mg/kg, 6 h, dose level Low): 5.3 g/dL
gamma-GTP (10 mg/kg, 6 h, dose level Low): 1.4 IU/L
TERMINAL_BW (10 mg/kg, 9 h, dose level Low): 213 g
APTT (10 mg/kg, 9 h, dose level Low): 15.9 s
Bas (10 mg/kg, 9 h, dose level Low): 0%
Eos (10 mg/kg, 9 h, dose level Low): 0.6%
Fbg (10 mg/kg, 9 h, dose level Low): 267.6 mg/dL
Hb (10 mg/kg, 9 h, dose level Low): 13.5 g/dL
Ht (10 mg/kg, 9 h, dose level Low): 41.8%
Lym (10 mg/kg, 9 h, dose level Low): 78.8%
MCH (10 mg/kg, 9 h, dose level Low): 20.9 pg
MCHC (10 mg/kg, 9 h, dose level Low): 32.2%
MCV (10 mg/kg, 9 h, dose level Low): 64.8 fL
Mono (10 mg/kg, 9 h, dose level Low): 2.2%
Neu (10 mg/kg, 9 h, dose level Low): 17.4%
PT (10 mg/kg, 9 h, dose level Low): 14.1 s
Plat (10 mg/kg, 9 h, dose level Low): 130.4 x10_4/uL
Ret (10 mg/kg, 9 h, dose level Low): 8.4%
WBC (10 mg/kg, 9 h, dose level Low): 80 x10_2/uL
KIDNEY_L (10 mg/kg, 9 h, dose level Low): 1 g
KIDNEY_R (10 mg/kg, 9 h, dose level Low): 0.9 g
KIDNEY_TOTAL (10 mg/kg, 9 h, dose level Low): 1.9 g
LIVER (10 mg/kg, 9 h, dose level Low): 9 g
ALP (10 mg/kg, 9 h, dose level Low): 1512 IU/L
ALT (10 mg/kg, 9 h, dose level Low): 35.8 IU/L
AST (10 mg/kg, 9 h, dose level Low): 67.8 IU/L
BUN (10 mg/kg, 9 h, dose level Low): 10.4 mg/dL
CRE (10 mg/kg, 9 h, dose level Low): 0.2 mg/dL
Ca (10 mg/kg, 9 h, dose level Low): 10.7 mg/dL
DBIL (10 mg/kg, 9 h, dose level Low): 0.01 mg/dL
GLC (10 mg/kg, 9 h, dose level Low): 187.8 mg/dL
IP (10 mg/kg, 9 h, dose level Low): 10.2 mg/dL
K (10 mg/kg, 9 h, dose level Low): 4 meq/L
LDH (10 mg/kg, 9 h, dose level Low): 84.2 IU/L
Na (10 mg/kg, 9 h, dose level Low): 140.2 meq/L
PL (10 mg/kg, 9 h, dose level Low): 138.2 mg/dL
RALB (10 mg/kg, 9 h, dose level Low): 2.5 g/dL
TBIL (10 mg/kg, 9 h, dose level Low): 0.064 mg/dL
TC (10 mg/kg, 9 h, dose level Low): 75.2 mg/dL
TG (10 mg/kg, 9 h, dose level Low): 74 mg/dL
TP (10 mg/kg, 9 h, dose level Low): 5.3 g/dL
gamma-GTP (10 mg/kg, 9 h, dose level Low): 1.4 IU/L
TERMINAL_BW (10 mg/kg, 24 h, dose level Low): 228.6 g
APTT (10 mg/kg, 24 h, dose level Low): 17.7 s
Bas (10 mg/kg, 24 h, dose level Low): 0%
Eos (10 mg/kg, 24 h, dose level Low): 1%
Fbg (10 mg/kg, 24 h, dose level Low): 249 mg/dL
Hb (10 mg/kg, 24 h, dose level Low): 13.6 g/dL
Ht (10 mg/kg, 24 h, dose level Low): 42.5%
Lym (10 mg/kg, 24 h, dose level Low): 77%
MCH (10 mg/kg, 24 h, dose level Low): 20.8 pg
MCHC (10 mg/kg, 24 h, dose level Low): 32.1%
MCV (10 mg/kg, 24 h, dose level Low): 65 fL
Mono (10 mg/kg, 24 h, dose level Low): 3%
Neu (10 mg/kg, 24 h, dose level Low): 17.6%
PT (10 mg/kg, 24 h, dose level Low): 13.7 s
Plat (10 mg/kg, 24 h, dose level Low): 124 x10_4/uL
Ret (10 mg/kg, 24 h, dose level Low): 7.7%
WBC (10 mg/kg, 24 h, dose level Low): 85.9 x10_2/uL
KIDNEY_L (10 mg/kg, 24 h, dose level Low): 1.1 g
KIDNEY_R (10 mg/kg, 24 h, dose level Low): 1 g
KIDNEY_TOTAL (10 mg/kg, 24 h, dose level Low): 2.1 g
ALP (10 mg/kg, 24 h, dose level Low): 1661.4 IU/L
ALT (10 mg/kg, 24 h, dose level Low): 42.6 IU/L
AST (10 mg/kg, 24 h, dose level Low): 74.4 IU/L
BUN (10 mg/kg, 24 h, dose level Low): 13 mg/dL
CRE (10 mg/kg, 24 h, dose level Low): 0.2 mg/dL
Ca (10 mg/kg, 24 h, dose level Low): 10.8 mg/dL
DBIL (10 mg/kg, 24 h, dose level Low): 0.012 mg/dL
GLC (10 mg/kg, 24 h, dose level Low): 179.8 mg/dL
IP (10 mg/kg, 24 h, dose level Low): 8.1 mg/dL
K (10 mg/kg, 24 h, dose level Low): 4 meq/L
LDH (10 mg/kg, 24 h, dose level Low): 88 IU/L
Na (10 mg/kg, 24 h, dose level Low): 141.8 meq/L
PL (10 mg/kg, 24 h, dose level Low): 144.4 mg/dL
RALB (10 mg/kg, 24 h, dose level Low): 2.6 g/dL
TBIL (10 mg/kg, 24 h, dose level Low): 0.062 mg/dL
TC (10 mg/kg, 24 h, dose level Low): 73.8 mg/dL
TG (10 mg/kg, 24 h, dose level Low): 91.6 mg/dL
TP (10 mg/kg, 24 h, dose level Low): 5.4 g/dL
gamma-GTP (10 mg/kg, 24 h, dose level Low): 1 IU/L
TERMINAL_BW (30 mg/kg, 3 h, dose level Middle): 217.9 g

Reference: ChEMBL document CHEMBL3885861, “Open TG-GATES”
